Test results from patent publication US20250313554A1, “PTPN2 INHIBITORS” (Ness Therapeutics, Inc., priority 2022, published 2025).
Where two headings read alike, the source gives them in different places.

Experiments:
GST-tagged PTPN2 protein = GST-tagged PTPN2 protein (Homo sapiens (Human), UniProt P17706); experiment: Primary assay of PTPN2 enzymatic activity inhibition (DiFMUP fluorescence); type: biochemical; details: PTPN2 0.004 ng/μL, DiFUMP substrate 2 μM, 60 min at rt
Description: Compound activity was determined using GST-tagged PTPN2 protein (Cat #31592, ActiveMotif) (SEQ ID NO: 1) in an in vitro enzymatic reaction. The enzymatic reaction was carried out in assay buffer (50 mM HEPES Na salt pH 7.2-7.4, 2 mM EDTA, 100 mM NaCl, 52 ng/μL BSA, and 6 mM DTT). The compounds were dispensed on a 384 well Diamond Well Plate (Axigen, Cat #P-384-120SQ-C-S) using the Biomek FX liquid handling system at 100× solutions of compounds in DMSO. 2×PTPN2 (final concentration 0.004 ng/μL) was prepared in 1× Assay buffer and 25 μL of mixture per well was added into Reaction plate (Optiplate, black, Perkin Elmer, Cat #6007270). Add 25 μL of 1× buffer to Ctrl- (Substrate w/o PTPN2) wells followed by centrifugation at 100 g for 1 min. Next step the Compounds were added to Reaction plate using Biomek station via following steps: 3 μl of 100× compounds (in DMSO) were mixed with 27 μL of Assay Buffer, then 5 μL of this mixture was added to Reaction plate with 25 μL of PTPN2 Mix. Plates were centrifuged for 1 min at 100 g and incubated for another 10 min at rt. Finally, 20 μL of 2.5× Substrate (DiFUMP, Invitrogen™ Cat #D6567) mix was added into appropriate wells of Reaction plate to the final concentration of 2 μM, plate was centrifuged at 100 g for 1 min followed by incubation at rt for 60 min, and the Fluorescence Intensity was measured using a Microplate Reader (ClarioStar Plus, excitation 360 nm, emission 450 nm). The % inhibition was then used to calculate the Ki values. The Ki values are shown in Table A, wherein “A” corresponds to Ki<1.0 nm, “B” corresponds to 1.0 nm≤Ki<5.0 nm, “C” corresponds to 5.0 nm≤Ki<10.0 nm, “D” corresponds to 10.0 nm≤Ki<50.0 nm, and “E” corresponds to 50.0 nm≤Ki<100.0 nm, and “F” corresponds to 100.0 nm≤Ki.

[1] = tested on: B16F10 mouse melanoma cells; experiment: Tumor cells B16F10 cellular growth IFNγ-induced inhibition assay (CellTiter-Glo); type: cell-based; details: for IC50: B16-F10, 72 h, 3 days of incubation; for inhibition at 100 µM: B16-F10, B16F10, 100 μM compound
Description: B16F10 mouse melanoma cells (ATCC Cat #CRL-6475) were seeded at a density of 500 cells per well in a 384-well clear bottom plate (Corning Cat #3712, Corning, N.Y.) in 40 μL total volume of DMEM+10% FBS (PanEco Cat #C420, Russia and Sigma Cat #F4135, St. Louis, MO). Cells were allowed to adhere overnight at 37° C., 5% CO2. On the following day, 250× solutions of compounds in DMSO (Sigma Cat #D2650) were prepared into Cmpnds plate (Diamond Well Plate, Axigen, Cat #P-384-120SQ-C-S) (final concentration of 1×) and DMSO only controls were included. Dilution Plate (Diamond Well Plate (Axigen, Cat #P-384-120SQ-C-S) was prepared by adding 49 μL of culture medium per well: half of the plate with culture medium only, half with culture medium+IFNγ (5 ng/ml). A 1 μL aliquot of 250× compounds (Cmpnds plate) was added to 49 μL of culture medium (Dilution plate), then a 10 μL aliquot of the mixture was transferred to Reaction plate with 40 μL of cells followed by centrifugation at 240 g for 1 min. After 3 days of incubation, 10 μL of CellTiter-Glo (Promega) was added to the cells, plates were centrifuged at 240 g for 1 min, and luminescence signal was measured. For each compound, the percent growth inhibition at every compound dose level was calculated relative to the “DMSO/with IFNγ” control and used to determine the IC50.

[2] = Pharmacokinetic (PK) study in mice, oral bioavailability; type: in vivo, Male CD-1 mice; details: 10 mg/kg PO vs 2 mg/kg IV, 10% Ethanol, 30% PEG-400, 60% Phosal-50PG, form Suspension
Description: Pharmacokinetic (PK) study in mice: Male CD-1 mice obtained from Charles River GmbH (Sulzfeld, Germany) with body weight ranging between 30 g to 40 g were used in the PK studies. Group of 12 mice were given a 2 mg/kg intravenous bolus (IV) dose of test article as a solution in 20% HP-beta-CD, and another group of 9 mice were given a 10 mg/kg oral (PO) dose of test article as a solution or suspension in [10% ethanol, 30% PEG-400 and 60% Phosal-50PG]. Blood samples (˜200 μL per time point) were collected twice from each animal—from orbital sinus and by cardiopuncture at 0.083, 0.25, 0.5, 1, 2, 4, 8 and 24 hours after IV administration, and at 0.5, 1, 2, 4, 8 and 24 hours after PO administration, 3 mice/time point. Blood samples were collected in tubes with Na-EDTA 0.5 M solution (1:10) and centrifuged for 10 min at 10,000 rpm at 2 to 8° C. to harvest plasma. Plasma samples were stored at −80° C. until LC/MS/MS analysis. Concentration in each plasma sample was determined by a non-validated LC/MS/MS. Data is acquired using multiple reaction monitoring (MRM) with specific transitions monitored for each compound. Pharmacokinetic Analysis: PK parameters were calculated by non-compartmental methods as described in Gibaldi and Perrier (Gibaldi and Perrier, 1982) using Phoenix® WinNonlin® version 6.3 (Certara L.P.). Following PO administration, percent bioavailability (Fabs) was determined by dividing the dose normalized mean area under the plasma concentration-time curve, extrapolated to the last time point (AUClast) obtained following PO dose by the mean dose normalized AUC of the animals dosed by IV injection. All PK parameters are presented as mean±standard deviation (SD). PK studies were conducted in mice for exemplary compounds of Formula (I). The percent bioavailability (Fabs) values determined are listed in Table C for certain compounds, together with the dosage, vehicle and form used in the studies.

Sequence of GST-tagged PTPN2 protein (P17706 whole entry): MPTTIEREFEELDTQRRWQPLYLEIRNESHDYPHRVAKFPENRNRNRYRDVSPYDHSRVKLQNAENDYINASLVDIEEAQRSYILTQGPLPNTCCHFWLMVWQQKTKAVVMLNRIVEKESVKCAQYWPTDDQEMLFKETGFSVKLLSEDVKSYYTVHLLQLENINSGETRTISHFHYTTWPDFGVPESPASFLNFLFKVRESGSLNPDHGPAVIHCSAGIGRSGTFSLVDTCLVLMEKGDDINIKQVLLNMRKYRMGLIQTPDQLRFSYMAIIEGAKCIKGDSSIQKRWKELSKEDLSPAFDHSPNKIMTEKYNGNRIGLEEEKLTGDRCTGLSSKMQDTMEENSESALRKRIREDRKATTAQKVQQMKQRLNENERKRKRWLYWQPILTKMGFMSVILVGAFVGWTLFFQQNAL

- Ki (GST-tagged PTPN2 protein): 1 to 5 nM
- IC50 ([1]; B16F10, no IFNγ, read-out: IC50 no IFNγ): > 100000 nM
- IC50 ([1]; B16F10, with IFNγ, read-out: IC50 + IFNγ): < 5000 nM
- Fabs, % [2]: 2.7%
Structure (SMILES): Cc1cc(O)nc(Nc2cc(O)c(N3CC(=O)NS3(=O)=O)c(F)c2)n1 [Compound 10, 5-[2-fluoro-6-hydroxy-4-[(4-hydroxy-6-methyl-pyrimidin-2-yl)amino]phenyl]-1,1-dioxo-1,2,5-thiadiazolidin-3-one]
- inhibition at 100 µM ([1]; no IFNγ, read-out: % Growth Inhibition at 100 μM no IFNγ): 10 to 50%
- inhibition at 100 µM ([1]; with IFNγ, read-out: % Growth Inhibition at 100 μM + IFNγ): 75 to 100%
